As usually defined, the inhibition is how much of the control response was suppressed. High values mean strong suppression, low ones little suppression. What is called IC50 is the point on the concentration scale where inhibition reaches its midpoint. A lower IC50 goes with greater potency.

The target of one assay is Human TASK-1 channels (Homo sapiens (Human), UniProt O14649). Kind of assay: Activity on the TASK-1 channel in Xenopus oocytes (two-microelectrode voltage clamp).
Human TASK-1 channels, sequence (O14649 whole entry): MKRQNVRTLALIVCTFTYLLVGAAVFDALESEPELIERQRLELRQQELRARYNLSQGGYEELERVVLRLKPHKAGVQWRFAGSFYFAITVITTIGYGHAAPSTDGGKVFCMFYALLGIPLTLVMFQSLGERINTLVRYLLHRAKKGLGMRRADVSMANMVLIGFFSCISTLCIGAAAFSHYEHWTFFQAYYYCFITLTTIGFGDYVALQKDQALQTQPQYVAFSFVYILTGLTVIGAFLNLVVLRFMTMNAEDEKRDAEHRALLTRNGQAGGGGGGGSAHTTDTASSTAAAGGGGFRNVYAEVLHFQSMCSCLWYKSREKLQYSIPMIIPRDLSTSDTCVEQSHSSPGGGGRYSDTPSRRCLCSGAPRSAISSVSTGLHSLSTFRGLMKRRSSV
Conditions: not given
Type of assay: cell-based. Here is the method: Human TASK-1 channels were expressed in Xenopus oocytes. For this purpose, oocytes were isolated from Xenopus laevis and defoliculated. Subsequently, TASK-1-encoding RNA synthesized in vitro was injected into oocytes. […] Data were acquired and analyzed using a TEC-10cx amplifier (NPI Electronic, Tamm, Germany) connected to an ITC-16 interface (Instrutech Corp., Long Island, USA) and Pulse software (HEKA Elektronik, Lambrecht, Germany). […] Oocytes were continuously superfused with ND96 buffer containing: NaCl 96 mM, KCl 2 mM, CaCl2 1.8 mM, MgCl2 1 mM, HEPES 5 mM (pH adjusted to 7.4 with NaOH). All experiments were performed at room temperature.
Test substances were consecutively added to the bath solution at rising concentrations. […] IC50 values were obtained by fitting the data to the general dose-response equation.
The compound `CC(C)(C)OCC(=O)N1CCc2c(c(-c3cccc(C#N)c3)nn2Cc2ccc(F)cc2F)C1` [Example 8d, 3-[5-(2-tert-Butoxy-acetyl)-1-(2,4-difluoro-benzyl)-4,5,6,7-tetrahydro-1H-pyrazolo[4,3-c]pyridin-3-yl]-benzonitrile] returned an inhibition at 5 µM of 75%.
Still for that read-out and setting: then `COCC(=O)N1CCc2c(c(-c3cccc(C#N)c3)nn2Cc2ccc(F)cc2F)C1` [Example 8n, 3-[1-(2,4-Difluoro-benzyl)-5-(2-methoxy-acetyl)-4,5,6,7-tetrahydro-1H-pyrazolo[4,3-c]pyridin-3-yl]-benzonitrile], with 80%.
Consider `CCOC(=O)N1CCc2c(c(-c3cccc(C#N)c3)nn2Cc2ccc(F)cc2F)C1` [Example 8y, 3-(3-Cyano-phenyl)-1-(2,4-difluoro-benzyl)-1,4,6,7-tetrahydro-pyrazolo[4,3-c]pyridine-5-carboxylic acid ethyl ester], for which the inhibition at 5 µM was 77%.
The same measure, in the same setting: with `CC(C)NC(=O)N1CCc2c(c(-c3cccc(C#N)c3)nn2Cc2ccc(F)cc2F)C1` [Example 11a, 3-(3-Cyano-phenyl)-1-(2,4-difluoro-benzyl)-1,4,6,7-tetrahydro-pyrazolo[4,3-c]pyridine-5-carboxylic acid isopropylamide] the figure was 76%.
In the case of `CCNC(=O)N1CCc2c(c(-c3cccc(C#N)c3)nn2Cc2ccc(F)cc2F)C1` [Example 11h, 3-(3-Cyano-phenyl)-1-(2,4-difluoro-benzyl)-1,4,6,7-tetrahydro-pyrazolo[4,3-c]pyridine-5-carboxylic acid ethylamide], the inhibition at 5 µM worked out at 91%.
As for `CN(C)C(=O)N1CCc2c(c(-c3cccc(C#N)c3)nn2Cc2ccc(F)cc2F)C1` [Example 12d, 3-(3-Cyano-phenyl)-1-(2,4-difluoro-benzyl)-1,4,6,7-tetrahydro-pyrazolo[4,3-c]pyridine-5-carboxylic acid dimethylamide], testing at 5 µM gave an inhibition of 74%.

Staying with this assay, now noted: human TASK-1 expressed in Xenopus oocytes, currents during pulses to 40 mV, room temperature.
Take `CC1(C(=O)N2CCc3c(c(-c4cccc(C#N)c4)nn3Cc3ccc(F)cc3F)C2)COC1` [Example 8a, 3-[1-(2,4-Difluoro-benzyl)-5-(3-methyl-oxetane-3-carbonyl)-4,5,6,7-tetrahydro-1H-pyrazolo[4,3-c]pyridin-3-yl]-benzonitrile]: it took 276 nM to reach half-maximal inhibition (IC50).
`CC(C)C(=O)N1CCc2c(c(-c3cccc(C#N)c3)nn2Cc2ccc(F)cc2F)C1` [Example 8b, 3-[1-(2,4-Difluoro-benzyl)-5-isobutyryl-4,5,6,7-tetrahydro-1H-pyrazolo[4,3-c]pyridin-3-yl]-benzonitrile] came in with an IC50 of 19 nM.
The same measure, in the same setting: then `N#Cc1cccc(-c2nn(Cc3ccc(F)cc3F)c3c2CN(C(=O)C2CC2)CC3)c1` [Example 8c, 3-[5-Cyclopropanecarbonyl-1-(2,4-difluoro-benzyl)-4,5,6,7-tetrahydro-1H-pyrazolo[4,3-c]pyridin-3-yl]-benzonitrile], with 47 nM.
Same read-out and setting: with `CS(=O)(=O)c1cccc(C(=O)N2CCc3c(c(-c4cccc(C#N)c4)nn3Cc3ccc(F)cc3F)C2)c1` [Example 8e, 3-[1-(2,4-Difluoro-benzyl)-5-(3-methanesulfonyl-benzoyl)-4,5,6,7-tetrahydro-1H-pyrazolo[4,3-c]pyridin-3-yl]-benzonitrile] the figure was 1620 nM; with `O=C(c1ccc(F)cc1)N1CCc2c(c(-c3ccc(F)cc3)nn2Cc2ccccc2)C1` [Example 8f, [1-Benzyl-3-(4-fluoro-phenyl)-1,4,6,7-tetrahydro-pyrazolo[4,3-c]pyridin-5-yl]-(4-fluoro-phenyl)-methanone], 1280 nM.
For `COc1ccc(C(=O)N2CCc3c(c(-c4ccc(F)cc4)nn3Cc3ccccc3)C2)cc1` [Example 8g, [1-Benzyl-3-(4-fluoro-phenyl)-1,4,6,7-tetrahydro-pyrazolo[4,3-c]pyridin-5-yl]-(4-methoxy-phenyl)-methanone], inhibition was half-maximal at 3260 nM (IC50).
For `O=C(c1ccccc1)N1CCc2c(c(-c3ccc(F)cc3)nn2Cc2ccccc2)C1` [Example 8h, [1-Benzyl-3-(4-fluoro-phenyl)-1,4,6,7-tetrahydro-pyrazolo[4,3-c]pyridin-5-yl]-phenyl-methanone], the 50% inhibitory concentration (IC50) stood at 2400 nM.
In turn, `N#Cc1cccc(-c2nn(Cc3ccc(F)cc3F)c3c2CN(C(=O)C2CCC2)CC3)c1` [Example 8i, 3-[5-Cyclobutane-carbonyl-1-(2,4-difluoro-benzyl)-4,5,6,7-tetrahydro-1H-pyrazolo[4,3-c]pyridin-3-yl]-benzonitrile] showed a 50% inhibitory concentration (IC50) of 64 nM.
For `N#Cc1cccc(-c2nn(Cc3ccc(F)cc3F)c3c2CN(C(=O)C2CCCC2)CC3)c1` [Example 8j, 3-[5-Cyclopentane-carbonyl-1-(2,4-difluoro-benzyl)-4,5,6,7-tetrahydro-1H-pyrazolo[4,3-c]pyridin-3-yl]-benzonitrile], the midpoint of inhibition, the IC50, lay at 722 nM.
`CS(=O)(=O)c1ccc(C(=O)N2CCc3c(c(-c4cccc(C#N)c4)nn3Cc3ccc(F)cc3F)C2)cc1` [Example 8k, 3-[1-(2,4-Difluoro-benzyl)-5-(4-methanesulfonyl-benzoyl)-4,5,6,7-tetrahydro-1H-pyrazolo[4,3-c]pyridin-3-yl]-benzonitrile] returned a half-inhibitory concentration (IC50) of 906 nM.
Still for that read-out and setting: then `N#Cc1cccc(-c2nn(Cc3ccc(F)cc3F)c3c2CN(C(=O)C2CCOCC2)CC3)c1` [Example 8l, 3-[1-(2,4-Difluoro-benzyl)-5-(tetra-hydro-pyran-4-carbonyl)-4,5,6,7-tetrahydro-1H-pyrazolo[4,3-c]pyridin-3-yl]-benzonitrile], with 585 nM; and `N#Cc1cccc(-c2nn(Cc3ccc(F)cc3F)c3c2CN(C(=O)C2CCOC2)CC3)c1` (stereo not drawn) [Example 8m, 3-[1-(2,4-Difluoro-benzyl)-5-(tetrahydro-furan-3-carbonyl)-4,5,6,7-tetrahydro-1H-pyrazolo[4,3-c]pyridin-3-yl]-benzonitrile], with 890 nM.
With `CC(C)(C)C(=O)N1CCc2c(c(-c3cccc(C#N)c3)nn2Cc2ccc(F)cc2F)C1` [Example 8o, 3-[1-(2,4-Difluoro-benzyl)-5-(2,2-dimethyl-propionyl)-4,5,6,7-tetrahydro-1H-pyrazolo[4,3-c]pyridin-3-yl]-benzonitrile], inhibition was half-maximal at 131 nM (IC50).
For the compound `CCC(=O)N1CCc2c(c(-c3cccc(C#N)c3)nn2Cc2ccc(F)cc2F)C1` [Example 8p, 3-[1-(2,4-Difluoro-benzyl)-5-propionyl-4,5,6,7-tetrahydro-1H-pyrazolo[4,3-c]pyridin-3-yl]-benzonitrile], the IC50 came out at 530 nM.
The same measure, in the same setting: then `C[C@H](O)C(=O)N1CCc2c(c(-c3cccc(C#N)c3)nn2Cc2ccc(F)cc2F)C1` [Example 8q, 3-[1-(2,4-Difluoro-benzyl)-5-((S)-2-hydroxy-propionyl)-4,5,6,7-tetrahydro-1H-pyrazolo[4,3-c]pyridin-3-yl]-benzonitrile], with 756 nM.
`O=C(Cc1ccccc1)N1CCc2c(c(-c3ccc(F)cc3)nn2Cc2ccccc2)C1` [Example 8r, 1-[1-Benzyl-3-(4-fluoro-phenyl)-1,4,6,7-tetrahydro-pyrazolo[4,3-c]pyridin-5-yl]-2-phenyl-ethanone] had a half-inhibitory concentration (IC50) of 1140 nM.
The same measure, in the same setting: then `CCCC(=O)N1CCc2c(c(-c3cccc(C#N)c3)nn2Cc2ccc(F)cc2F)C1` [Example 8s, 3-[5-Butyryl-1-(2,4-difluoro-benzyl)-4,5,6,7-tetrahydro-1H-pyrazolo[4,3-c]pyridin-3-yl]-benzonitrile], with below 10000 nM; and `N#Cc1cccc(-c2nn(Cc3ccc(F)cc3F)c3c2CN(C(=O)c2ccccn2)CC3)c1` [Example 8t, 3-[1-(2,4-Difluoro-benzyl)-5-(pyridine-2-carbonyl)-4,5,6,7-tetrahydro-1H-pyrazolo[4,3-c]pyridin-3-yl]-benzonitrile], with 246 nM.
`N#Cc1cccc(-c2nn(Cc3ccc(F)cc3F)c3c2CN(C(=O)c2ccncc2F)CC3)c1` [Example 8u, 3-[1-(2,4-Difluoro-benzyl)-5-(3-fluoro-pyridine-4-carbonyl)-4,5,6,7-tetrahydro-1H-pyrazolo[4,3-c]pyridin-3-yl]-benzonitrile] had a half-maximal inhibitory concentration (IC50) of 416 nM.
For `N#Cc1cccc(-c2nn(Cc3ccc(F)cc3F)c3c2CN(C(=O)c2ccncn2)CC3)c1` [Example 8v, 3-[1-(2,4-Difluoro-benzyl)-5-(pyrimidine-4-carbonyl)-4,5,6,7-tetrahydro-1H-pyrazolo[4,3-c]pyridin-3-yl]-benzonitrile], the IC50 came to 864 nM. Compared with the last compound, the IC50 is about 2.1-fold higher.
`Cn1cncc1C(=O)N1CCc2c(c(-c3cccc(C#N)c3)nn2Cc2ccc(F)cc2F)C1` [Example 8w, 3-[1-(2,4-Difluoro-benzyl)-5-(3-methyl-3H-imidazole-4-carbonyl)-4,5,6,7-tetrahydro-1H-pyrazolo[4,3-c]pyridin-3-yl]-benzonitrile] had an IC50 of 1150 nM.
The same measure, in the same setting: with `Cn1ccc(C(=O)N2CCc3c(c(-c4cccc(C#N)c4)nn3Cc3ccc(F)cc3F)C2)n1` [Example 8x, 3-[1-(2,4-Difluoro-benzyl)-5-(1-methyl-1H-pyrazole-3-carbonyl)-4,5,6,7-tetrahydro-1H-pyrazolo[4,3-c]pyridin-3-yl]-benzonitrile] the figure was 1880 nM; with `CC(=O)N1Cc2c(-c3ccc(F)cc3)nn(Cc3ccc(F)cc3F)c2CC1C` (stereo not drawn) [Example 8z, 1-[1-(2,4-Difluoro-benzyl)-3-(4-fluoro-phenyl)-6-methyl-1,4,6,7-tetrahydro-pyrazolo[4,3-c]pyridin-5-yl]-ethanone], 511 nM; with `CNC(=O)N1CCc2c(c(-c3cccc(C#N)c3)nn2Cc2ccc(F)cc2F)C1` [Example 12a, 3-(3-Cyano-phenyl)-1-(2,4-difluoro-benzyl)-1,4,6,7-tetrahydro-pyrazolo[4,3-c]pyridine-5-carboxylic acid methylamide], 380 nM.

Values taken from patent publication US9127001B2, “Substituted 4,5,6,7-tetrahydro-1H-pyrazolo[4,3-c]pyridines, their use as medicament, and pharmaceutical preparations comprising them” (Sanofi, priority 2011, dated 2015).
